These results are taken from article PMC4912613, “A broad analysis of resistance development in the malaria parasite” (Nature Communications, 2016).

For data set [1], the system named is TM90C2A (DHFR, folate pathway; compared with 3D7). Put plainly: Cross-resistance EC50 assay, TM90C2A. Type of data set: cell-based. The note with it: Plasmodium falciparum, 48 h, read-out: TM90C2A (3D7 Parent) Average EC50. An excerpt: (§1) To evaluate potential overlapping activity against known antimalarial drug targets, we performed dose-response studies with each compound against our assembled set of drug-resistant lines and their corresponding parents, in an asexual blood stage proliferation assay (Table 1). Comparisons were made to the drug-sensitive strain 3D7 when a parent was unavailable (TM90C2A, W2 and Dd2). As laboratories conducted EC50 assays with different strains and protocols, all comparisons were made between assays from the same laboratory and under the same assay conditions. Compounds displaying >5-fold EC50 shifts relative to the parent or sensitive strain were flagged as having potentially non-novel targets. Average fold shifts per strain ranged from 0.82 to 2.34, with a median of 1.23 indicating there was not common resistance to any one resistant clone. No resistance patterns were observed when classifying the compounds based on chemical structure, but this was not surprising given the diversity of compounds chosen. On the other hand, given that these confirmed compounds were derived from larger unconfirmed hit lists to which some filtration criteria may have been applied (for example, elimination of obvious dihydrofolate reductase inhibitors[32]), some[10][11][12][13] pre-existing bias may exist in the set.
(§2) The 48-h assay was carried out in a 96-well format following standard methods using the ^3H-hypoxanthine incorporation assay. The raw EC50 values corresponding to this assay can be found in Supplementary Data 3. Briefly, this assay relies on the parasite incorporation of labelled hypoxanthine that is proportional to P. falciparum growth. A culture of parasitized RBCs (0.5% parasitemia with a percentage of ring stage higher than 70% of total parasitemia, 2.0% haematocrit) in RPMI-1640, […] and 5 μM hypoxanthine was exposed to drug serial dilutions. Plates were incubated for 24 h at 37 °C, 5% CO2, 5% O2 and 90% N2. After 24 h of incubation, ^3H-hypoxanthine was added and plates were incubated for an additional 24-h period. After that, parasites were harvested on a glass fibre filter using a TOMTEC Cell Harvester 96. Filters were dried and melt-on scintillator sheets were used to determine the incorporation of ^3H-hypoxanthine. Radioactivity was measured using a microbeta counter. Data were normalized using the incorporation of the positive (parasitized RBCs without drug) and negative (same culture with artesunate at 2 μM) controls. All assays were conducted in triplicate using three independently grown cultures, and EC50 values were determined using the XLfit add-in module for Excel (version 2.3.1) from Grafit (version 5.3.1.3), where parameter h is the assay hill slope, x is the compound concentration and y is the inhibition of growth effect. The XLfit equation is: […]
EC50 values for each strain were compared with those of the corresponding parent strain to determine fold-shift changes and identify resistance. To minimize the cause variance between assays, all comparisons were conducted between strains assayed under identical conditions. A one-way ANOVA followed by a Dunnet's post-test was conducted in GraphPad Prism to identify significant changes between the parent and resistant strain.

Data set [2] relates to W2. The data set can be described thus: Cross-resistance EC50 assay, W2 parent. It counts as cell-based, Plasmodium falciparum. The note with it: Plasmodium falciparum, 48 h, read-out: W2F6 (PARENT) Average EC50.
Source text: (§3) Multidrug resistance alleles, including mutations in P. falciparum chloroquine resistance transporter (pfcrt) and P. falciparum multi-drug resistance transporter 1 (pfmdr1) are very common in field isolates. Therefore, we sought to assess the degree to which pre-existing resistance alleles would contribute to a loss of potency for this diverse collection of small molecule compounds. Fifteen clones derived from three main parent lines were chosen to maximize diversity in mutated pathways and genetic backgrounds, thus representing the variety of resistance seen in the field: 3D7 (ref. [23]), W2 (ref. [24]) or Dd2 (ref. [25]). The 3D7 line originates from the clone of a Netherlands clinical isolate strain[23][26] and is generally considered to be drug sensitive, though it does convey resistance to sulfadoxine. Conversely, W2 (ref. [24], [27]) and Dd2 (ref. [25]) are multi-drug-resistant lines originating from the Indochina III/CDC isolate, which contain point mutations in pfcrt as well as amplifications in pfmdr1 and GTP cyclohydrolase.
as §1, §2
(§4) Alternatively, a SYBR Green-based proliferation approach was used for the 72-h assay, as previously described. […]

Data set [3] relates to 3D7. The data set can be described thus: Cross-resistance EC50 assay, 3D7 parent / sensitive strain. The note with it: Plasmodium falciparum, hypoxanthine 48-hour assay, synchronized parasites, 96-well format. Type of data set: cell-based.
Source text: as §3, §1, §2, §4

Data set [4] concerns P. falciparum. Put plainly: Rate of killing (parasite viability) assay. Type of data set: cell-based, Plasmodium falciparum. The note with it: profile compared with chloroquine, pyrimethamine, atovaquone; 48 h treatment. The procedure:
To identify whether selection success could be predicted by compound speed of action, and to gain a greater insight into the potential mechanisms of action, assays were performed to test the killing rate (Supplementary Data 1)[33]. To quantify the killing rate, viability time-course profiles for each compound were compared with antimalarials known to have fast (chloroquine), moderate (pyrimethamine) or slow (atovaquone) rate of action. These rates were then compared with other compound characteristics, including cross-resistance profile, selection success, potency and structural characteristics to identify any possible trends. […] One compound's rate of killing, MMV666080, was unidentifiable due to compound availability. No correlation was seen between compound structure and speed of action. Additionally, there was no correlation found between killing rate and compound potency against 3D7, nor between potency and selection success (Supplementary Fig. 2).
Rate of killing was determined for each compound following a previously described methodology, which uses the invasion of fresh erythrocytes as surrogate of parasite viability. Briefly, parasites were treated with compounds for 48 h. Compound was washed out and fresh-labelled erythrocytes added to the treated parasites. Double stained erythrocytes (RBC label plus parasite DNA label) were quantified and per cent of survival determined.

Data set [5] relates to P. berghei exoerythrocytic forms. Put plainly: Liver-stage P. berghei hepatocyte invasion and development assay (luminescence, HepG2). It counts as cell-based, Plasmodium berghei. The note with it: Plasmodium berghei, HepG2, text values; read-out: Liver stage EC50 (PfLuc EC50). An excerpt:
(§5) As drugs that eliminate multiple stages of the parasite lifecycle will be critical components in global efforts to eliminate malaria, we were interested in knowing whether the compounds in our study had additional activities against either the liver and/or transmission stages of the parasite lifecycle. To determine this, we first evaluated the compounds in additional phenotypic assays. The first assay was a P. berghei hepatocyte invasion and development assay, which predicts causal prophylactic activity. Hepatocyte toxicity was additionally tested to identify false-positive activity in the liver stage due to host-cell toxicity. Assays were executed in duplicate using a 12-point EC50 curve at starting concentrations of 5 μM or 50 μM (Supplementary Table 1).
(§6) Liver-stage activity was determined by pretreating hepatic human cells (HepG2) for 2 h with compound in 1,536-well plates infected with freshly dissected P. berghei sporozoites. After 48 h of incubation, the viability of P. berghei exoerythrocytic forms was measured by luminescence reaction light output using BrightGlo (Promega). Varying levels of compound concentration were used (5 μM or 50 μM) due to the stock concentration supplied.

A short description of data set [6]: Hepatocyte toxicity. It counts as cell-based, human. Conditions: human; read-out: HepG2 EC50 (hepatocyte toxicity).
Source text: as §5, §6

Data set [7] has as its system Stage 5 gametocytes from P. falciparum NF54. Put plainly: Late-stage (stage V) gametocyte survival assay, MitoTracker. It counts as cell-based, Plasmodium falciparum. Conditions: Plasmodium falciparum; P. falciparum NF54, 72 h; read-out: Stage 5 Gametocyte EC50. The procedure:
The second assay was a late-stage (stage V) gametocyte survival assay, which predicts transmission-blocking activity. […] Positive and negative control compounds included puromycin (0.61±0.11 μM) and atovaquone (> 12.50 μM), respectively.
To test sexual-stage activity, compounds were tested against late-stage gametocytes using a MitoTracker fluorescent-based assay. Specifically, synchronized stage V gametocytes were incubated with compound for 72 h. MitoTracker Red CMXRos (Life Technologies) was added to each well (final concentration: 500 nM) together with saponin to lyse the RBCs. Each plate was then imaged with an Operetta High Content Imaging System (Perkin Elmer) for fluorescence (590–640 nm). Varying levels of compound concentration were used (1.25 μM or 12.5 μM) due to the stock concentration supplied.
The gametocytocidal activity was measured using high-content image analysis software (Harmony, Perkin Elmer). The readout was based on number of metabolically active gametocytes per well.

Data set [8] concerns P. falciparum. The arrangement: method as in PMID 26542470. The note with it: known rate of action; cited from earlier work.
The test system of data set [9] is MMV026596-selected cultures (parental line 3D7). Put plainly: EC50 on cultures selected with MMV026596. Type of data set: cell-based, Plasmodium falciparum. The note with it: hypersensitivity of cultures after 100 days of MMV026596 selection. An excerpt: While we found an overall lack of pre-existing resistance, analysing the onset of resistance was critical, as compounds resulting in rapid resistance are not ideal for clinical development. We therefore sought to create drug-resistant parasites using a variety of different selection methods. We implemented either a high-dose method or a ramp-up/pulse method for our in vitro selections. Two of the 50 compounds—MMV028895 and MMV665824—were removed from the selection study during experimentation. […] Out of the remaining 48 compounds, resistant parasites were obtained for 23 (Supplementary Data 1). As each selection was performed in triplicate with three independent cultures, we succeeded in generating a total of 66 resistant cultures. Parasites resistant to MMV026596 were not obtained despite 100 days of selection, but the cultures acquired hypersensitivity to mefloquine with a 10-fold reduction in EC50 compared with its parental line, 3D7. For the remaining 24 compounds, acquisition of resistant parasites was unsuccessful despite numerous attempts over an extensive period of time.

Read-outs that look alike come from different tables or passages of the source. Some results are limits rather than exact numbers.

Regarding `COc1ccc(NC(=O)N2CCCCN3[C@H](CO)[C@H](c4ccc(C#Cc5ccccc5)cc4)[C@@H]3C2)cc1` [BRD3444], the EC50 (in general, the concentration giving half of the maximal effect) in [1] was 37 nM; in data set [2], 31 nM; in data set [3] (strain 3D7 (parent), read-out: 3D7 (PARENT) Average EC50), 45 nM; in data set [3] (strain 3D7-C9-WT (parent of PfATP4 Mut3), read-out: 3D7-C9-WT (PARENT) Average EC50), 35 nM.
As for `Cn1c(C(=O)c2cccc3ccccc23)nc2ccccc21` [MMV665824], the “Killing Rate” value in data set [4] is “ATQ (slow)”.
In the case of `O=C1C(O)=C([C@H]2CC[C@H](c3ccc(Cl)cc3)CC2)C(=O)c2ccccc21` [atovaquone, reference compound], the EC50 was 0.419 ± 0.044 nM in data set [5], 7720 ± 1370 nM in data set [6] and greater than 12500 nM in data set [7]. For the same compound, in data set [8], the “rate of action of comparator antimalarials” value is recorded as “slow”.
Take `CCN(CC)CCCC(C)Nc1ccnc2cc(Cl)ccc12` (stereo not drawn) [chloroquine]: the “rate of action of comparator antimalarials” value in [8] is listed as “fast”.
Take `OC(c1cc(C(F)(F)F)nc2c(C(F)(F)F)cccc12)C1CCCCN1` (stereo not drawn) [mefloquine]: the “reduction in EC50 compared with parental line 3D7” value in data set [9] is listed as 10 fold.
For the compound `COc1ccc(C[C@H](N)C(=O)N[C@H]2[C@@H](O)[C@H](n3cnc4c(N(C)C)ncnc43)O[C@@H]2CO)cc1` [puromycin, reference compound], the EC50 in data set [5] stood at 32.7 ± 29.7 nM; in [6], 254 ± 36.6 nM; in data set [7], 610 ± 110 nM.
For the compound `CCc1nc(N)nc(N)c1-c1ccc(Cl)cc1` [pyrimethamine], the “rate of action of comparator antimalarials” value in [8] was “moderate”.
